Measured values taken from article PMC7751916, “Synthesis and bioactivities of 1-(4-hydroxyphenyl)-2-((heteroaryl)thio)ethanones as carbonic anhydrase I, II and acetylcholinesterase inhibitors” (Turkish Journal of Chemistry, 2020).

Experiments:
hCA I = hCA I (Homo sapiens, UniProt P00915); experiment: CAs inhibition assay (esterase activity, p-nitrophenyl acetate); assay type: biochemical
Text: Human CA isoforms (hCAI and hCAII) were purified by the Sepharose - 4B - L - tyrosine - sulfanilamide affinity segregation method as reported. […] Inhibitory effects of the compounds were investigated by measuring the esterase activity according to Verpoorte et al. as described in previous. […] All chemicals were purchased from Sigma-Aldrich Chemie GmbH.

hCA II = hCA II (Homo sapiens, UniProt P00918); experiment: as above; assay type: biochemical
Description: Human CA isoforms (hCAI and hCAII) were purified by the Sepharose - 4B - L - tyrosine - sulfanilamide affinity segregation method as reported. Bradford technique was used to measure protein concentrations at 595 nm. Inhibitory effects of the compounds were investigated by measuring the esterase activity according to Verpoorte et al. as described in previous. The hCA activity was determined by measuring the conversion of thep-nitrophenyl acetate substrate to p -nitro phenolate at 348 nm by the spectrophotometer (UV - VIS Spectrophotometer, UVmini-1240, Shimadzu Corporation, Kyoto, Japan). Acetazolamide (AZA) was used as a control drug. Lineweaver–Burk plot was used to calculate inhibition constants (Ki) of the compounds [33]. All chemicals were purchased from Sigma-Aldrich Chemie GmbH.

Chain of hCA I (P00915 whole entry, canonical isoform): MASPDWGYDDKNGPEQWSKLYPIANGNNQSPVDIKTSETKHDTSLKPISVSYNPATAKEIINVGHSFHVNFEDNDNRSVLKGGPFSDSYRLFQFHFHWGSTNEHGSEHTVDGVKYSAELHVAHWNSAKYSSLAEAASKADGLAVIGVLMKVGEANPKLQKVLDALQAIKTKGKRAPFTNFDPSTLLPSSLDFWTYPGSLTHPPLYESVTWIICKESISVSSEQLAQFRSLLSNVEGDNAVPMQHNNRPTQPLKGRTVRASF

| SMILES | IC50 (hCA I) [nM] | Ki (hCA I) [nM] | IC50 (hCA II) [nM] | Ki (hCA II) [nM] | fold more potent against hCAII than reference AZA (hCA II; based on Ki values) [fold] | fold more potent inhibitor against hCAI than reference AZA (hCA I; based on Ki values) [fold] |
| --- | --- | --- | --- | --- | --- | --- |
| O=C(CSc1nc2ccccc2s1)c1ccc(O)cc1 [Compound 1, 2-(Benzo[d]thiazol-2-ylthio)-1-(4-hydroxyphenyl)ethanone] | 35.4 | 14.6 ± 2.06 | 29.4 | 8.76 ± 0.84 | 2.0 |  |
| Cn1nnnc1SCC(=O)c1ccc(O)cc1 [Compound 6, 1-(4-Hydroxyphenyl)-2-((1-methyl-1 H -tetrazol-5-yl)thio)ethanone] | 62.5 | 14.4 ± 3.71 | 57.3 | 27.4 ± 11.8 |  |  |
| Cc1nnc(SCC(=O)c2ccc(O)cc2)s1 [Compound 4, 1-(4-Hydroxyphenyl)-2-((5-methyl-1,3,4-thiadiazol-2-yl)thio)ethanone] | 48.1 | 13.8 ± 2.47 | 41.7 | 16.9 ± 3.99 |  |  |
| Cn1ccnc1SCC(=O)c1ccc(O)cc1 [Compound 3, 1-(4-Hydroxyphenyl)-2-((1-methyl-1H-imidazol-2-yl)thio)ethanone] | 35.2 | 17.8 ± 2.08 | 39.8 | 31.6 ± 3.29 |  |  |
| O=C(CSc1nc2ccccc2o1)c1ccc(O)cc1 [Compound 2, 2-(Benzo[d]oxazol-2-ylthio)-1-(4-hydroxyphenyl)ethanone] | 32.8 | 8.61 ± 0.9 | 43.6 | 23.4 ± 7.13 |  | 2.5 |
| Cn1cnnc1SCC(=O)c1ccc(O)cc1 [Compound 5, 1-(4-Hydroxyphenyl)-2-((4-methyl-4 H -1,2,4-triazol-3-yl)thio)ethanone] | 65.6 | 42.6 ± 7.59 | 34 | 14.3 ± 5.1 |  |  |
